The text below walks through data of US20060041019A1, “Inhibitor of anticancer drug side effect” (priority 2002, published 2006).

Holding throughout (format): in vivo
Data set [1] concerns Male mouse models (CBA/J) of spontaneous alveolar epithelial hyperplasia. Kind of data set: Hair loss as side effect of adriamycin, Test Example 1. Particulars: ADM 0.1 mg/kg i.p., eight courses. Here is the method: (§1) Male mouse models (CBA/J) of spontaneous alveolar epithelial hyperplasia were employed as test animals. These mice develop alveolar epithelial hyperplasia 12 to 15 weeks after birth. Accordingly, they were raised with normal feeds until 19 weeks after birth. […] CPL was mixed with powder feeds (CE-2). The daily dosage of adriamycin (ADM) was 0.1 mg/kg per mouse, and administration was made intraperitoneally once a day for three consecutive days, followed by drug withdrawal for 11 days. This procedure was designated as constituting a single course, and eight courses thereof were conducted.
(§2) At the time of ADM administration, the body weights of mice were measured and their general conditions were observed. In particular, the occurrence of hair loss was carefully observed. The mice were subjected to autopsy 36 weeks or 37 weeks after birth (with an administration duration of 17 weeks or 18 weeks), and samples were recovered. Tissue blocks were obtained from 3 sites each of the extirpated right and left lungs (6 sites in total), the recovered tissue fragments were fixed, fragments embedded in hydrophilic methacrylate resins were subjected to H-E staining, and the ranges of alveolar epithelial hyperplasia were compared.

For data set [2], the system named is alveolar epithelial hyperplasia in male mouse models (CBA/J). Briefly: Inhibition of alveolar epithelial hyperplasia, Test Example 1. Here is the method: as §1
as §2, with “compared. […]” for “compared.”

The test system of data set [3] is Mouse models of spontaneous cancer (CBA/J). Briefly: Hair loss and whisker loss as side effect of adriamycin, Test Example 4. Particulars: ADM 0.2 mg/kg i.p. in courses; CPL 0.01% in feed; n = 10 (ADM), 9 (ADM and CPL), 10 (CPL). The text has this: Based on the results attained in Test Examples 2 and 3, hair loss and whisker loss were observed under overcrowded conditions or in the presence of a dominant male. […] Accordingly, only the cage in which the dominant male was not present among the group that had been raised under normal conditions was selected, and the effects of CPL for alleviating side effects of an antitumor agent were examined.
Thereafter, they were divided into: the group to which an antitumor agent (adriamycin, ADM) had been administered; the group to which CPL-containing feeds had been administered; and the group to which ADM had been administered in combination with CPL, and these groups of mice were raised. The daily dosage of ADM was 0.2 mg/kg per mouse, and administration was made intraperitoneally once a day for 3 consecutive days, followed by drug withdrawal for 11 days. This procedure was designated as constituting a single course and then continued. CPL was mixed with feeds (CE-2) in amounts of 0.01% thereof.

The mark [4] stands for this setting: CPL 0.01% in feed, group sizes n = 7 (CPL), 8 (CPL and ADM), 10 (ADM).

As for `COc1cccc2c1C(=O)c1c(O)c3c(c(O)c1C2=O)C[C@@](O)(C(=O)CO)C[C@@H]3O[C@H]1C[C@H](N)[C@H](O)[C@H](C)O1` [ADM, adriamycin], the “Individuals with hair loss around the eyeballs and the skin of the upper lips” value in data set [1] (9 out of 10 cases) is reported as 90%. In data set [1] (setting [4]), the “Number of individuals undergoing hair loss around the eyeballs” value is 9 and the “Number of individuals undergoing hair loss at the upper lip” value turned out to be 9. The “Individuals in which sections with rates of hyperplasia development of 50% or more were observed” value in data set [2] (FIG. 9, as in the group that did not experience administration) is “all individuals”. Moreover, the “Sections with rates of hyperplasia development of less than 10%, share of the whole” value in data set [2] (lung tissue sections, 6 sites per individual, autopsy 36 or 37 weeks after birth, FIG. 8) was determined as 8.3%. Further, in data set [3], the “Hair loss and whisker loss (number of individuals)” value was found to be 4.
